Experimental data reported in publication PMC2903749 (ACS medicinal chemistry letters, 2010).
Where two headings read alike, the source gives them in different places.

Key:
[1] = biological target: proline racemase; conditions: cited from earlier work
[2] = biological target: Glutamate racemase (GR) (Bacillus subtilis, UniProt P94556); assay: biochemical
Sequence of Glutamate racemase (GR) (P94556 whole entry): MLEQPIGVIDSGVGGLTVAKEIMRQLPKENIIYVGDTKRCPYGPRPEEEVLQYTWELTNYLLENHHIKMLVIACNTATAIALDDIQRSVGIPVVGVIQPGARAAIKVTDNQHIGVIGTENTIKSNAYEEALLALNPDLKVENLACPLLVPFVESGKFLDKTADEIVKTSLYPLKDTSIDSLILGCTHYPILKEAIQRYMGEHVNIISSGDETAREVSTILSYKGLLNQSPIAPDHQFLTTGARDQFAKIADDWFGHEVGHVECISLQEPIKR

| Structure (SMILES) | Ki ([1]; read-out: Ki1, first of two binding states) [µM] | Ki ([1]; read-out: Ki2, second of two binding states) [µM] | Ki [2] [mM] |
| --- | --- | --- | --- |
| O=C(O)c1ccc[nH]1 [PYC, pyrrole-2-carboxylic acid] | 4.6 | 30 |  |
| NC(=O)CC[C@H](N)C(=O)O [glutamine] |  |  | 50 |
